According to patent US20170216252A1, “ANTI-BACTERIAL PYRUVATE KINASE MODULATOR COMPOUNDS, COMPOSITIONS, USES AND METHODS” (SIMON FRASER UNIVERSITY, priority 2014, published 2017):
In brackets after ≈: the same amount, converted by molar mass. Read-outs that look alike come from different tables or passages of the source.

Key:
MRSA PK = molecular target: T1, MRSA PK (Staphylococcus aureus, UniProt Q6GG09); test: MRSA PK activity, continuous LDH-coupled assay; format: biochemical, S. aureus (MRSA strain Sanger 252); settings: for inhibition at 10 µM: read-out: % inhibition at the highest concentration tested (IC50)
T1 construct: His tag (pET-28a(+) vector) (N); made in house; host or cells: E. coli BL-21 (DE3)
T1 sequence (Q6GG09 whole entry): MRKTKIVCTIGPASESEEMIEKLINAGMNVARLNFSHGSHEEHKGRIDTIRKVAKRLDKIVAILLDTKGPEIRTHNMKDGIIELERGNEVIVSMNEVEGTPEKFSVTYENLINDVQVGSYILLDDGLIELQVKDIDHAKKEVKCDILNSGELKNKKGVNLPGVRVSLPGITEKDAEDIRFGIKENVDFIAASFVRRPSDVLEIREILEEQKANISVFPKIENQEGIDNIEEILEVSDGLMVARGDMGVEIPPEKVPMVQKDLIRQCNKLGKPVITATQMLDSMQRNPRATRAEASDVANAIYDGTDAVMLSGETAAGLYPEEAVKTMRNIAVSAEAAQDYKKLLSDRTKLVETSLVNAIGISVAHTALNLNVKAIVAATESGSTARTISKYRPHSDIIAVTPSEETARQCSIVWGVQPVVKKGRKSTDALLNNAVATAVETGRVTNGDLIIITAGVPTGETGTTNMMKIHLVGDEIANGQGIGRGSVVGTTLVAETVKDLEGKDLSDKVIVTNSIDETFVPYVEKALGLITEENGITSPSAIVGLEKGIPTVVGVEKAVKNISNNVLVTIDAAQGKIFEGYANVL
Description: Genomic DNA of MRSA strain Sanger 252 extracted using DNeasy Tissue Kit™ (Qiagen™) was used as a template to generate the His-tagged MRSA PK. Human cDNA from MCF-7 breast cancer cell line (courtesy of Dr. J Wong, BC Cancer Research Center (Vancouver, Canada) was used as a template to generate the full-length human M2 PK enzyme. The following primer sets were used creating appropriate restriction sites (NdeI and XhoI sites underlined): For cloning of MRSA PK: M27F 5′-[…]-3′ and M27R 5′-[…]-3′, for cloning of human M2 PK isoform: hM2F 5′-[…]-3′ and hM2R 5′-[…]-3′. The resulting PCR fragments for each construct were cloned into the NdeI and XhoI unique sites of the bacterial expression vector pET-28a (+) (Novagen™). […] The sequence and the correct reading frame of all constructs were verified by sequencing. Human M1, R and L PK constructs in pET-28-a(+) vectors (courtesy of Dr. L. Cantley, Harvard Medical, School (Boston, USA)) were used to generate relevant recombinant His-tagged human PK isoforms.
MRSA and human constructs in pET-28a(+) were used to express relevant recombinant PK proteins in E. coli BL-21 (DE3). The proteins were expressed and purified using Ni-NTA agarose (Qiagen™) according to the manufacturer's protocol. Briefly, cells were grown to an absorbance of 0.4-0.5 at 600 nm in 2×YT medium, then induced with 0.1 mM IPTG for 3 h at 20° C. Cells were lysed by sonication on ice (3×10-s bursts with a 30-s recovery between bursts) in lysis buffer (0.2 mg/ml lysozyme, 50 mM Tris pH 7.5, 10 mM MgCl2, 200 mM NaCl, 100 mM KCl, 10% glycerol, 10 mM imidazole, 0.5% NP-40 and 1 mM DTT containing Complete™ protease inhibitor). Cell lysates were cleared by centrifugation (18,000×g in a Beckman™ JA-20 rotor) for 20 min at 4° C. and PK isoforms were purified by batch binding to Ni-NTA resin. The resins were then packed in columns (1×2 cm) and washed with 400 column volumes lysis buffer containing 30 mM imidazole. His-tagged PK isoforms were eluted with the same buffer containing 300 mM imidazole. The proteins were dialyzed overnight at 4° C. against 2000 volumes of ice-cold 30 mM Tris pH 7.5, 25 mM KCl, 5 mM MgCl2, 10% glycerol and 1 mM DTT to remove imidazole. All purification steps were done at 4° C.; enzymes were flash-frozen and stored at −70° C. […] Purity and physical integrity of proteins were assessed using SDS-polyacrylamide gel electrophoresis (SDS-PAGE) followed by coomassie blue staining. Protein concentration was estimated by Bradford assay (Bio-Rad Protein Assay™) using bovine serum albumin as a standard.
Candidate MRSA PK inhibitors were assayed for their ability to inhibit enzymatic activities of MRSA and human PKs. PK activity was determined using a continuous assay coupled to lactate dehydrogenase (LDH) in which the change in absorbance at 340 nm owing to oxidation of NADH was measured using a Benchmark Plus™ microplate spectrophotometer (Bio-Rad Laboratories, Hercules, Calif.). […] Reactions were initiated by the addition of 15 nM of one of the PK enzymes. PK activity proportional to the rate of change at 340 nm was expressed as specific activity (μmol/min/mg), which is defined as the amount of PK that catalyzes the formation of one micromole of either product per minute. Inhibitors were dissolved in DMSO with the final concentration of the solvent never exceeding 1% of the assay volume. IC50 values were calculated by curve fitting on a four-parameter dose-response model with variable slope using Graphpad Prism 5.0™ (GraphPad™ Software Inc., La Jolla, Calif.). […] Reactions were performed at 30° C. for up to 5 min. All values determined represent at least two measurements, in triplicate (Tables 1-6) or duplicate unless mentioned otherwise.

S. aureus ATCC 29213 = test: In vitro susceptibility, broth microdilution MIC; format: cell-based, Staphylococcus aureus; settings: Staphylococcus aureus, read-out: MIC
Procedure: The antimicrobial activities of PK inhibitor candidates were determined using the 96-well microtiter standard 2-fold serial broth microdilution method as described by CLSI (formerly NCCLS) with the various gram-positive and gram-negative bacteria species mentioned above. Bacteria from a single colony were grown, overnight in either BHI Broth (VRE), mueller hinton broth (S. aureus 29213; MRSA USA400) or L-broth (E. coli, P. aeruginosa, S. typhimuriu, K. Pneumonia and A. baumannii). […] Culture plates were incubated for 18-24 h at 37° C., and optical density at 600 nm (OD600) was measured using a Benchmark Plus™ microplate spectrophotometer (Bio-Rad™). The absorbance control values for the series containing CAMHB and inhibitor were subtracted as background from the corresponding infected wells. The MIC was defined as the lowest concentration of test compound leading to complete inhibition of cell growth in relationship to compound-free control wells as determined by optical density. […] All assays were run in triplicate (Tables 1-6) or duplicate. Experiments were replicated at least twice to verify reproducibility using the above conditions.

[1] = ATCC29213, Table 8, tested at least in duplicate, differing values all given
[2] = ATCC29213, Tables 1-6 and text, minimum concentration to give >98% inhibition of growth
[3] = Tables 1-6, 2 mM ADP, 10 mM PEP, 15 nM PK, read-out: IC50

O=C(O)c1cc(Br)cc2[nH]c(CCc3ccc(Cl)cc3)cc12 [Compound 159, 6-bromo-2-(4-chlorophenethyl)-1H-indole-4-carboxylic acid]
IC50 (MRSA PK): 100 to 1000 nM
MIC (S. aureus ATCC 29213; [1]): 64 µg/mL (≈ 169 µM)

COC(=O)c1c(C(=O)Nc2ccc(OC)nc2)[nH]c2cc(Br)ccc12 [Compound 135, Methyl 6-bromo-2-((6-methoxypyridin-3-yl)carbamoyl)-1H-indole-3-carboxylate]
EC50 (MRSA PK): 31.7 nM
MIC (S. aureus ATCC 29213; [1]): > 64 µg/mL

O=C(c1c(CCc2ccc(Cl)nc2)[nH]c2cc(Br)ccc12)C(F)(F)F [Compound 173, 1-(6-Bromo-2-(2-(6-chloropyridin-3-yl)ethyl)-1H-indol-3-yl)-2,2,2-trifluoroethanone]
IC50 (MRSA PK): > 1000 nM
MIC (S. aureus ATCC 29213; [1]): > 64 µg/mL

Cc1ccc(/C=C/c2cc3ccc(Br)cc3[nH]2)cn1 [Compound 106, (E)-6-Bromo-2-(2-(6-methylpyridin-3-yl)vinyl)-1H-indole]
IC50 (MRSA PK): > 1000 nM
MIC (S. aureus ATCC 29213; [1]): > 64 µg/mL

CC(C)C(=O)c1c(CCc2ccc(Cl)cc2)[nH]c2cc(Br)ccc12 [Compound 39c, 1-(6-bromo-2-(4-chlorophenethyl)-1H-indol-3-yl)-2-methylpropan-1-one]
IC50 (MRSA PK): 28 nM
MIC (S. aureus ATCC 29213; [2]): 4 µg/mL (≈ 9.88 µM)

O=C(O)c1c(/C=C/c2ccc(Br)cn2)[nH]c2cc(Br)ccc12 [Compound 153, (E)-6-Bromo-2-(2-(5-bromopyridin-2-yl)vinyl)-1H-indole-3-carboxylic acid]
IC50 (MRSA PK): 100 to 1000 nM
MIC (S. aureus ATCC 29213; [1]): 32 µg/mL (≈ 75.8 µM)

O=C(Nc1ccc(Cl)cc1)c1cc2ccc(Br)cc2[nH]1 [Compound 128, 6-bromo-N-(4-chlorophenyl)-1H-indole-2-carboxamide]
IC50 (MRSA PK): 17 nM
MIC (S. aureus ATCC 29213; [1]): > 64 µg/mL

O=C(O)c1c(/C=C/c2cc(Cl)cc(Cl)c2)[nH]c2cc(Br)ccc12 [Compound 150, (E)-6-Bromo-2-(3,5-dichlorostyryl)-1H-indole-3-carboxylic acid]
IC50 (MRSA PK): > 1000 nM
MIC (S. aureus ATCC 29213; [1]): 8 µg/mL (≈ 19.5 µM)

Clc1ccc(CCc2cc3ccc(Br)cc3[nH]2)cn1 [Compound 120, 6-Bromo-2-(2-(6-chloropyridin-3-yl)ethyl)-1H-indole]
IC50 (MRSA PK): 50 to 100 nM
MIC (S. aureus ATCC 29213; [1]): > 64 µg/mL

C(=C\c1cc2ccccc2[nH]1)/c1cc2ccccc2[nH]1 [Compound 44]
inhibition at 10 µM (MRSA PK): 63%
MIC (S. aureus ATCC 29213; [2]): > 64 µg/mL

Oc1ccc(Br)cc1/C=N/c1nc2ccc(Br)cc2s1 [Compound 58]
inhibition at 10 µM (MRSA PK): 77%
MIC (S. aureus ATCC 29213; [2]): 64 µg/mL (≈ 155 µM)

Brc1ccc2cc(CCc3cn4ccccc4n3)[nH]c2c1 [Compound 125, 2-(2-(6-Bromo-1H-indol-2-yl)ethyl)imidazo[1,2-a]pyridine]
IC50 (MRSA PK): > 1000 nM
MIC (S. aureus ATCC 29213; [1]): > 64 µg/mL

COC(=O)c1c(NCc2cn3ccccc3n2)[nH]c2cc(Br)ccc12 [Compound 166, Methyl 6-bromo-2-(imidazo[1,2-a]pyridin-2-ylmethylamino)-1H-indole-3-carboxylate]
IC50 (MRSA PK): > 1000 nM
MIC (S. aureus ATCC 29213; [1]): > 64 µg/mL

Cc1c(/C=C/c2ccc(Cl)cc2)[nH]c2cc(Br)ccc12 [Compound 160, (E)-6-bromo-2-(4-chlorostyryl)-3-methyl-1H-indole]
IC50 (MRSA PK): < 50 nM
MIC (S. aureus ATCC 29213; [1]): > 64 µg/mL

Brc1ccc2cc(/C=C/c3cc4ccc(Br)cc4[nH]3)[nH]c2c1 [Compound 27b, (E)-1,2-bis(6-bromo-1H-indol-2-yl)ethane]
IC50 (MRSA PK; [3]): 3.9 nM
MIC (S. aureus ATCC 29213; [2]): > 64 µg/mL

Clc1cnc(/C=C/c2cc3ccc(Br)cc3[nH]2)cn1 [Compound 118, (E)-6-Bromo-2-(2-(5-chloropyrazin-2-yl)vinyl)-1H-indole]
IC50 (MRSA PK): 50 to 100 nM
MIC (S. aureus ATCC 29213; [1]): 16 µg/mL (≈ 47.8 µM)

O=C(Nc1ccc(Cl)nc1)c1[nH]c2cc(Br)ccc2c1C(=O)O [Compound 139, 6-Bromo-2-((6-chloropyridin-3-yl)carbamoyl)-1H-indole-3-carboxylic acid]
IC50 (MRSA PK): 50 to 100 nM
MIC (S. aureus ATCC 29213; [1]): > 64 µg/mL

Cn1c(C#Cc2cc3cc(Br)ccc3[nH]2)cc2cc(Br)ccc21 [Compound 48, 5-Bromo-2-((5-bromo-1H-indol-2-yl)ethynyl)-1-methyl-1H-indole]
inhibition at 10 µM (MRSA PK): 60%
MIC (S. aureus ATCC 29213; [2]): > 64 µg/mL

Fc1cc2cc(/C=C/c3ccc(Cl)cc3)[nH]c2cc1Br [Compound 161, (E)-6-Bromo-2-(4-chlorostyryl)-5-fluoro-1H-indole]
IC50 (MRSA PK): < 50 nM
MIC (S. aureus ATCC 29213; [1]): > 64 µg/mL

COC(=O)c1c(C(=O)Nc2ccc(Cl)cn2)[nH]c2cc(Br)ccc12 [Compound 137, Methyl 6-bromo-2-((5-chloropyridin-2-yl)carbamoyl)-1H-indole-3-carboxylate]
EC50 (MRSA PK): 13.2 nM
MIC (S. aureus ATCC 29213; [1]): > 64 µg/mL

CC(=O)c1c(-c2cc3ccccc3[nH]2)[nH]c2cc(Br)ccc12 [Compound 91, 1-(6-bromo-1H,1′H-[2,2′-biindol]-3-yl)ethan-1-one]
IC50 (MRSA PK): 7.7 nM
MIC (S. aureus ATCC 29213; [2]): 4 µg/mL (≈ 11.3 µM)

Clc1cnc(C#Cc2cc3ccc(Br)cc3[nH]2)nc1 [Compound 142, 6-Bromo-2-((5-chloropyrimidin-2-yl)ethynyl)-1H-indole]
IC50 (MRSA PK): 50 to 100 nM
MIC (S. aureus ATCC 29213; [1]): > 64 µg/mL

O=C(Nc1nc2ccc(Br)cc2[nH]1)c1cc2ccc(Br)cc2[nH]1 [Compound 80, 6-Bromo-N-(6-bromo-1H-benzo[d]imidazol-2-yl)-1H-indole-2-carboxamide]
IC50 (MRSA PK): 1.5 nM
MIC (S. aureus ATCC 29213; [2]): > 64 µg/mL

O=C(Nc1nc2cc(Br)ccc2s1)c1cc2cc(Br)ccc2[nH]1 [Compound 77, 5-Bromo-N-(5-bromobenzo[d]thiazol-2-yl)-1H-indole-2-carboxamide]
IC50 (MRSA PK): 8.2 nM
MIC (S. aureus ATCC 29213; [2]): > 64 µg/mL

O=C(Nc1nc2cc(Br)ccc2s1)c1cc2ccccc2[nH]1 [Compound 53, N-(5-Bromobenzo[d]thiazol-2-yl)-1H-indole-2-carboxamide]
IC50 (MRSA PK; [3]): 50.9 nM
MIC (S. aureus ATCC 29213; [2]): > 64 µg/mL

Clc1ccc(NCc2cc3ccc(Br)cc3[nH]2)cc1 [Compound 147, N-((6-Bromo-1H-indol-2-yl)methyl)-4-chloroaniline]
EC50 (MRSA PK): 244 nM
MIC (S. aureus ATCC 29213; [1]): > 64 µg/mL

O=C(O)c1c(/C=C/c2ccc(Cl)nc2)[nH]c2cc(Br)ccc12 [Compound 152, (E)-6-Bromo-2-(2-(6-chloropyridin-3-yl)vinyl)-1H-indole-3-carboxylic acid]
IC50 (MRSA PK): > 1000 nM
MIC (S. aureus ATCC 29213; [1]): 64 µg/mL (≈ 169 µM)

O=C(Nc1nc2ccc(Br)cc2s1)c1cc2ccccc2[nH]1 [Compound 54, N-(6-Bromobenzo[d]thiazol-2-yl)-1H-indole-2-carboxamide]
IC50 (MRSA PK; [3]): 11.1 nM
MIC (S. aureus ATCC 29213; [2]): > 64 µg/mL
